Laboratory results from ChEMBL document CHEMBL6182861, “Structural modification of heptamethine indocyanine dyes with improved aqueous solubility and stability for photothermal therapy” (Eur J Med Chem, 2025).
Calls of active or inactive are those of the source. The rule behind the calls is not given here.

Assays:
[1] = Photosensitizing property of compound assessed as generation of singlet-state oxygen by ESR spectrometry; format: functional
[2] = Photosensitizing property of compound assessed as generation of singlet-state oxygen at 10 uM exposed to laser irradiation of 808 nm for 2 mins by SOSG probe based analysis; format: functional
[3] = Photothermal stability of compound at 60 degreeC at 20 uM exposed to laser irradiation of 808 nm for 2.5 mins; format: physicochemical
[4] = Drug uptake in mouse 4T1 cells assessed as increase in fluorescence intensity at 3.12 uM incubated for 4 hrs by flow cytometry; format: ADME, cell-based; settings: 4t1, 4 h
[5] = Drug uptake in human HepG2 cells assessed as increase in fluorescence intensity at 3.12 uM incubated for 4 hrs by flow cytometry; format: ADME, cell-based; settings: hepg2, 4 h
[6] = Drug uptake in mouse 4T1 cells assessed as increase in fluorescence intensity at 3.12 uM incubated for 4 hrs by CLSM; format: ADME, cell-based; settings: 4t1, 4 h
[7] = Drug uptake in human HepG2 cells assessed as increase in fluorescence intensity at 3.12 uM incubated for 4 hrs by CLSM; format: ADME, cell-based; settings: hepg2, 4 h
4T1 [8] = assay: Cytotoxicity against mouse 4T1 cells under dark condition at 3.12 uM incubated for 24 hrs by MTT assay; format: functional, cell-based
HepG2 [9] = assay: Cytotoxicity against human HepG2 cells under dark condition at 3.12 uM incubated for 24 hrs by MTT assay; format: functional, cell-based
4T1 [10] = assay: Induction of ROS generation in mouse 4T1 cells at 3.12 uM incubated for 4 hrs followed by exposure to laser irradiation of 808 nm for 2 mins by flow cytometry; format: functional, cell-based; settings: time 242.0 min
4T1 [11] = assay: Induction of ROS generation in mouse 4T1 cells at 3.12 uM incubated for 4 hrs followed by exposure to laser irradiation of 808 nm for 2 mins by DCFH-DA probe based CLSM; format: functional, cell-based; settings: time 242.0 min
HepG2 [12] = assay: Induction of ROS generation in human HepG2 cells at 3.12 uM incubated for 4 hrs followed by exposure to laser irradiation of 808 nm for 2 mins by flow cytometry; format: functional, cell-based; settings: time 242.0 min
HepG2 [13] = assay: Induction of ROS generation in human HepG2 cells at 3.12 uM incubated for 4 hrs followed by exposure to laser irradiation of 808 nm for 2 mins by DCFH-DA probe based CLSM; format: functional, cell-based; settings: time 242.0 min
Mitochondrial membrane [14] = assay: Inhibition of mitochondrial membrane potential in mouse 4T1 cells at 3.12 uM preincubated for 4 hrs followed by exposure to laser irradiation of 808 nm for 2 mins and subsequent incubation for 20 hrs by flow cytometry; format: cell membranes; settings: time 1442.0 min
Mitochondrial membrane [15] = assay: Inhibition of mitochondrial membrane potential in mouse 4T1 cells at 3.12 uM preincubated for 4 hrs followed by exposure to laser irradiation of 808 nm for 2 mins and subsequent incubation for 20 hrs by Rh123 probe based CLSM; format: cell membranes; settings: time 1442.0 min
Mitochondrial membrane [16] = assay: Inhibition of mitochondrial membrane potential in human HepG2 cells at 3.12 uM preincubated for 4 hrs followed by exposure to laser irradiation of 808 nm for 2 mins and subsequent incubation for 20 hrs by flow cytometry; format: cell membranes; settings: time 1442.0 min
Mitochondrial membrane [17] = assay: Inhibition of mitochondrial membrane potential in human HepG2 cells at 3.12 uM preincubated for 4 hrs followed by exposure to laser irradiation of 808 nm for 2 mins and subsequent incubation for 20 hrs by Rh123 probe based CLSM; format: cell membranes; settings: time 1442.0 min
Mitochondrial membrane [18] = assay: Inhibition of mitochondrial membrane potential in mouse 4T1 cells at 3.12 uM incubated for 24 hrs by flow cytometry; format: cell membranes
Mitochondrial membrane [19] = assay: Inhibition of mitochondrial membrane potential in mouse 4T1 cells at 3.12 uM incubated for 24 hrs by Rh123 probe based CLSM; format: cell membranes
Mitochondrial membrane [20] = assay: Inhibition of mitochondrial membrane potential in human HepG2 cells at 3.12 uM incubated for 24 hrs by flow cytometry; format: cell membranes
Mitochondrial membrane [21] = assay: Inhibition of mitochondrial membrane potential in human HepG2 cells at 3.12 uM incubated for 24 hrs by Rh123 probe based CLSM; format: cell membranes
Mitochondrial membrane [22] = assay: Inhibition of mitochondrial membrane potential in mouse 4T1 cells assessed as green fluorescence at 3.12 uM preincubated for 4 hrs followed by exposure to laser irradiation of 808 nm for 2 mins and subsequent incubation for 20 hrs by JC-1 dye based analysis; format: cell membranes; settings: time 1442.0 min
Mitochondrial membrane [23] = assay: Inhibition of mitochondrial membrane potential in human HepG2 cells assessed as green fluorescence at 3.12 uM preincubated for 4 hrs followed by exposure to laser irradiation of 808 nm for 2 mins and subsequent incubation for 20 hrs by JC-1 dye based analysis; format: cell membranes; settings: time 1442.0 min
4T1 [24] = assay: Induction of apoptosis in mouse 4T1 cells at 3.12 uM incubated for 4 hrs followed by exposure to laser irradiation of 808 nm for 2 mins by Annexin V-FITC/PI staining based flow cytometry; format: functional, cell-based; settings: time 242.0 min
HepG2 [25] = assay: Induction of apoptosis in human HepG2 cells at 3.12 uM incubated for 4 hrs followed by exposure to laser irradiation of 808 nm for 2 mins by Annexin V-FITC/PI staining based flow cytometry; format: functional, cell-based; settings: time 242.0 min
[26] = Photothermal property of compound assessed as increase in photothermal conversion efficiency at 20 uM exposed to laser irradiation of 808 nm for 2 mins; format: functional
HepG2 [27] = assay: Photothermal cytotoxicity against human HepG2 cells up to 25 uM preincubated for 4 hrs followed by exposure to laser irradiation of 808 nm for 2 mins and subsequent incubation for 20 hrs by MTT assay; format: functional, cell-based; settings: time 1442.0 min
4T1 [28] = assay: Photothermal cytotoxicity against mouse 4T1 cells up to 25 uM preincubated for 4 hrs followed by exposure to laser irradiation of 808 nm for 2 mins and subsequent incubation for 20 hrs by MTT assay; format: functional, cell-based
[29] = Aqueous solubility of compound by absorbance based assay; format: physicochemical; settings: buffer

Compound	Stability [3]	Drug uptake [4]	Drug uptake [5]	Drug uptake [6]	Drug uptake [7]	Activity [1]	Activity [2]	Activity (4T1 [10])	Activity (4T1 [11])	Activity (HepG2 [12])	Activity (HepG2 [13])	inhibition (Mitochondrial membrane [14])	inhibition (Mitochondrial membrane [15])	inhibition (Mitochondrial membrane [16])	inhibition (Mitochondrial membrane [17])	inhibition (Mitochondrial membrane [18])	inhibition (Mitochondrial membrane [19])	inhibition (Mitochondrial membrane [20])	inhibition (Mitochondrial membrane [21])	Activity (4T1 [24])	other results
CC1(C)C(/C=C/C=C/C=C/C=C2\N(CCCCS(=O)(=O)O)c3ccc4ccccc4c3C2(C)C)=[N+](CCCCS(=O)(=O)[O-])c2ccc3ccccc3c21	–	–	–	–	–	Active	inactive	–	–	–	–	–	–	–	–	–	–	–	–	–	–
COCCOCCOCCN1/C(=C/C=C/C=C/C=C/C2=[N+](CCOCCOCCOC)c3ccccc3C2(C)C)C(C)(C)c2ccccc21.[I-]	Unstable	Active	Active	Active	Active	Active	Active	Active; Exhibited Highest Activity Among Tested Compounds	Active; Exhibited Highest Activity Among Tested Compounds	Active; Exhibited Highest Activity Among Tested Compounds	Active; Exhibited Highest Activity Among Tested Compounds	Active; Significant Inhibition Was Observed	Active; Significant Inhibition Was Observed	Active; Significant Inhibition Was Observed	Active; Significant Inhibition Was Observed	Active; Certain Degree Of Inhibition Was Observed	Active; Certain Degree Of Inhibition Was Observed	Active; Certain Degree Of Inhibition Was Observed	Active; Certain Degree Of Inhibition Was Observed	Active	Activity [26]: 5.2%; Activity (HepG2 [27]): Active; Compound Was Less Photo-Thermally Effective But Showed Stronger Cell-Killing Ability; Activity (4T1 [28]): Active; Compound Was Less Photo-Thermally Effective But Showed Stronger Cell-Killing Ability; inhibition (Mitochondrial membrane [22]): Active; inhibition (Mitochondrial membrane [23]): Active; Activity (HepG2 [25]): Active

Second part, led by results:

Stability [3]	Drug uptake [4]	Drug uptake [5]	Drug uptake [6]	Drug uptake [7]	Compound	Activity [1]	Activity [2]	Activity (4T1 [10])	Activity (4T1 [11])	Activity (HepG2 [12])	Activity (HepG2 [13])	inhibition (Mitochondrial membrane [14])	inhibition (Mitochondrial membrane [15])	inhibition (Mitochondrial membrane [16])	inhibition (Mitochondrial membrane [17])	inhibition (Mitochondrial membrane [18])	inhibition (Mitochondrial membrane [19])	inhibition (Mitochondrial membrane [20])	inhibition (Mitochondrial membrane [21])	Activity (4T1 [24])	other results
Stable	Active	Active	Active	Active	CN1/C(=C/C=C/C(C#N)=C/C=C/C2=[N+](C)c3ccccc3C2(C)C)C(C)(C)c2ccccc21.[I-]	Active	Active	Active	Active	Active	Active	Active; Significant Inhibition Was Observed	Active; Significant Inhibition Was Observed	Active; Significant Inhibition Was Observed	Active; Significant Inhibition Was Observed	Active; Certain Degree Of Inhibition Was Observed	Active; Certain Degree Of Inhibition Was Observed	Active; Certain Degree Of Inhibition Was Observed	Active; Certain Degree Of Inhibition Was Observed	Active	Activity (4T1 [8]): Active; Activity (HepG2 [9]): Active; inhibition (Mitochondrial membrane [22]): Active; inhibition (Mitochondrial membrane [23]): Active; Activity (HepG2 [25]): Active
Stable	Active	Active	Active	Active	COCCOCCOCCN1/C(=C/C=C/C(C#N)=C/C=C/C2=[N+](CCOCCOCCOC)c3ccccc3C2(C)C)C(C)(C)c2ccccc21.[I-]	Active	Active	Active	Active	Active	Active	Active; Significant Inhibition Was Observed	Active; Significant Inhibition Was Observed	Active; Significant Inhibition Was Observed	Active; Significant Inhibition Was Observed	Active; Certain Degree Of Inhibition Was Observed	Active; Certain Degree Of Inhibition Was Observed	Active; Certain Degree Of Inhibition Was Observed	Active; Certain Degree Of Inhibition Was Observed	Active	Activity [26]: 0.7%; solubility [29]: soluble; Activity (4T1 [8]): Active; Activity (HepG2 [9]): Active; inhibition (Mitochondrial membrane [22]): Active; inhibition (Mitochondrial membrane [23]): Active; Activity (HepG2 [25]): Active
Unstable	Active	Active	Active	Active	CN1/C(=C/C=C/C=C/C=C/C2=[N+](C)c3ccccc3C2(C)C)C(C)(C)c2ccccc21.[I-]	Active	Active	Active	Active	Active	Active	Active; Significant Inhibition Was Observed	Active; Significant Inhibition Was Observed	Active; Significant Inhibition Was Observed	Active; Significant Inhibition Was Observed	Active; Certain Degree Of Inhibition Was Observed	Active; Certain Degree Of Inhibition Was Observed	Active; Certain Degree Of Inhibition Was Observed	Active; Certain Degree Of Inhibition Was Observed	Active	solubility [29]: Insoluble; Activity (HepG2 [27]): inactive; Activity (4T1 [28]): inactive; Activity (HepG2 [25]): Active
